Assay results reported in patent US20190119193A1, “COMPOSITION FOR REGULATING PLANT GROWTH, METHOD FOR TREATING PLANTS THEREWITH, AND ACTIVE INGREDIENT THEREOF” (Ivan Aleksandrovich Starikov, priority 2016, published 2019).

Test system: cucumber seeds (“Nezhinsky” variety)
Experiment: Laboratory tests of DMOA and DEOA for cucumber seeds
Assay type: in vivo
Details: for Germinative energy: day 3; for Germinative capacity / Number of lateral roots / Sprout height / Taproot length: day 7
Protocol: After that DMOA and DEOA were dissolved in dimethyl sulfoxide to give solutions of 10 g/L concentration, then water was added to give aqueous solutions of DMOA with concentrations of 5.5·10^−5 M, 5.5·10^−6 M, 5.5·10^−7 M, 5.5·10^−8 M, 5.5·10^−9 M and DEOA with concentrations of 4.8·10^−5 M, 4.8·10^−6 M, 4.8·10^−7 M, 4.8·10^−8 M, 4.8·10^−9 M.
The obtained aqueous solutions of DMOA and DEOA were tested in the Scientific Center of Soil-Ecological Reasearch of the Federal State-Funded Educational Institution of Higher Education “Russian State Agrarian University—Moscow Agricultural Academy named after K. A. Timiryazev” (Moscow, 2015) according to the method described by T. A. Sergeeva (Method of laboratory testing of herbicides, Plant protection, 1963, No. 2, pp. 42-43). The primary laboratory screening of DMOA and DEOA was carried out on the seeds of five different crops: sunflower of “Voronezh 638” variety, soybean of “Vilana” variety, alfalfa of “Vega” variety, cucumber of “Nezhinsky” variety and tomato of “Volgogradets” variety.
Water was used as a reference.
A single experiment was carried out in a Petri dish. A circle of filter paper was laid at the bottom of the dish and treated with 5 ml of the work solution selected for the experiment. After that 25 seeds were uniformly laid on the surface of the treated filter paper. The Petri dish was kept at a temperature of 21-23° C. with illumination by fluorescent lamps for 7 days. The fourfold replication of the experiment within a single variant was applied.
The experiment identified the number and percentage of normally germinated seeds on day 3 (germinative energy) and on day 7 (germinative capacity) after the beginning of the experiment. On day 7 the main biometric parameters were also measured: sprout height (mm), taproot length (mm) and number of lateral roots (pcs).
The results were processed with the method of variance analysis with the help of STRAZ software in order to get the LSD0.05 (least significant difference between the test results on 5% significance level).

## CCOC(=O)C=C([O-])C(=O)OCC.[Na+] [DEOA, sodium salt of diethyl ester of oxaloacetic acid]
4.8 · 10^−5 M
  Germinative energy: 84%
  Germinative capacity: 88%
  Number of lateral roots: 14.3 pcs.
  Sprout height: 27.8 ↑↑ mm
  Taproot length: 83.7 mm
4.8 · 10^−6 M
  Germinative energy: 80%
  Germinative capacity: 85%
  Number of lateral roots: 14.4 pcs.
  Sprout height: 22.2 mm
  Taproot length: 88.3 ↑ mm
4.8 · 10^−7 M
  Germinative energy: 84%
  Germinative capacity: 88%
  Number of lateral roots: 15.5 ↑ pcs.
  Sprout height: 22.3 mm
  Taproot length: 89.3 ↑ mm
4.8 · 10^−8 M
  Germinative energy: 88%
  Germinative capacity: 95%
  Number of lateral roots: 12.4 pcs.
  Sprout height: 19.3 mm
  Taproot length: 79.8 mm
4.8 · 10^−9 M
  Germinative energy: 91%
  Germinative capacity: 93%
  Number of lateral roots: 13.7 pcs.
  Sprout height: 21.6 mm
  Taproot length: 93.8 ↑↑ mm

## Sodium salt of dimethyl ester of oxaloacetic acid [DMOA]
5.5 · 10^−5 M
  Germinative energy: 86%
  Germinative capacity: 82%
  Number of lateral roots: 11.9 pcs.
  Sprout height: 19.0 mm
  Taproot length: 74.2 mm
5.5 · 10^−6 M
  Germinative energy: 88%
  Germinative capacity: 91%
  Number of lateral roots: 12.3 pcs.
  Sprout height: 15.9 mm
  Taproot length: 75.6 mm
5.5 · 10^−7 M
  Germinative energy: 85%
  Germinative capacity: 94%
  Number of lateral roots: 13.7 pcs.
  Sprout height: 17.7 mm
  Taproot length: 78.1 mm
5.5 · 10^−8 M
  Germinative energy: 86%
  Germinative capacity: 78%
  Number of lateral roots: 13.5 pcs.
  Sprout height: 17.1 mm
  Taproot length: 74.8 mm
5.5 · 10^−9 M
  Germinative energy: 82%
  Germinative capacity: 95%
  Number of lateral roots: 12.9 pcs.
  Sprout height: 18.2 mm
  Taproot length: 82.5 mm
